Measured values from ChEMBL document CHEMBL4725309, “Potent, non-covalent reversible BTK inhibitors with 8-amino-imidazo[1,5-a]pyrazine core featuring 3-position bicyclic ring substitutes” (Bioorg Med Chem Lett, 2020).

Columns and labels:
[1] = species on record: Homo sapiens; assay: Selectivity index, ratio of IC50 for FRK (unknown origin) to IC50 for recombinant full length BTK (unknown origin) expressed in baculovirus infected Sf9 cells
[2] = species on record: Homo sapiens; assay: Selectivity index, ratio of IC50 for FGR (unknown origin) to IC50 for recombinant full length BTK (unknown origin) expressed in baculovirus infected Sf9 cells
[3] = molecular target: Tyrosine-protein kinase Fgr (Homo sapiens, UniProt P09769); assay: Inhibition of FGR (unknown origin)
Tyrosine-protein kinase Fgr, sequence (P09769 whole entry): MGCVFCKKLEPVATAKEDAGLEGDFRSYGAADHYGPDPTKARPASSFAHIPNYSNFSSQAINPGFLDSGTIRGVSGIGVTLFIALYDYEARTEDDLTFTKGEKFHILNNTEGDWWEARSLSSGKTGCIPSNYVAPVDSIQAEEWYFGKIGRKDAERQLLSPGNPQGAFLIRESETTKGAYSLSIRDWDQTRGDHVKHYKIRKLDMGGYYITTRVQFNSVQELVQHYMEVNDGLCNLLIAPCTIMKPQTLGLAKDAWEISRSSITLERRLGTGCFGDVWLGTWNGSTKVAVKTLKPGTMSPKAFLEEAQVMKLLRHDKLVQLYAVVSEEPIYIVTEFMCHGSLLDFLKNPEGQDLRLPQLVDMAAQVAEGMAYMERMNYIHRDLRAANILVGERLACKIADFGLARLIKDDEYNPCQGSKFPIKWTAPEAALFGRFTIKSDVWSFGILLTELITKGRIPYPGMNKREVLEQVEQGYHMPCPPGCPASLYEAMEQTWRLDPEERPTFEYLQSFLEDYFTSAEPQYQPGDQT

[4] = molecular target: Tyrosine-protein kinase BTK (Homo sapiens, UniProt Q06187); assay: Inhibition of recombinant full length BTK (unknown origin) expressed in baculovirus infected Sf9 cells using Biotin-EQEDEPEGDYFEWLE-NH2 peptide as substrate incubated for 60 mins followed by further incubation with substrate and ATP for 120 mins by TR-FRET assay
Tyrosine-protein kinase BTK, sequence (Q06187 whole entry): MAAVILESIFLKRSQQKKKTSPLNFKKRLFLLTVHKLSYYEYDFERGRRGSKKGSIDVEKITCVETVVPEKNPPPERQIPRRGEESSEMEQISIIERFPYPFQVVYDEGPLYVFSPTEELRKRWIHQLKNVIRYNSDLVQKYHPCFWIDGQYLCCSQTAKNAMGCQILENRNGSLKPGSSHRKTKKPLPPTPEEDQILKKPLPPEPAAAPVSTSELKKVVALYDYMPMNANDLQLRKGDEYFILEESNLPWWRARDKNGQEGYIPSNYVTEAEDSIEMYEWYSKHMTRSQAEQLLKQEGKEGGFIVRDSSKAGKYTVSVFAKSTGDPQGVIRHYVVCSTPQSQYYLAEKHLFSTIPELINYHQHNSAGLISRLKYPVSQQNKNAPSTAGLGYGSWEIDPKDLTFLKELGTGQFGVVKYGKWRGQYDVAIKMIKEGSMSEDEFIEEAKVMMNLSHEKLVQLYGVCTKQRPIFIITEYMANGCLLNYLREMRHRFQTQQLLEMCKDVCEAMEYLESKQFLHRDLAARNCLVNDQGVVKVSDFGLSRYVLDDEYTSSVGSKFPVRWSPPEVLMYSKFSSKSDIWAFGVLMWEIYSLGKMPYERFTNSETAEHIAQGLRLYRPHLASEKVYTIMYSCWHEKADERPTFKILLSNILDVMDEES

[5] = molecular target: Tyrosine-protein kinase Blk (Homo sapiens, UniProt P51451); assay: Inhibition of BLK (unknown origin)
Tyrosine-protein kinase Blk, sequence (P51451 whole entry): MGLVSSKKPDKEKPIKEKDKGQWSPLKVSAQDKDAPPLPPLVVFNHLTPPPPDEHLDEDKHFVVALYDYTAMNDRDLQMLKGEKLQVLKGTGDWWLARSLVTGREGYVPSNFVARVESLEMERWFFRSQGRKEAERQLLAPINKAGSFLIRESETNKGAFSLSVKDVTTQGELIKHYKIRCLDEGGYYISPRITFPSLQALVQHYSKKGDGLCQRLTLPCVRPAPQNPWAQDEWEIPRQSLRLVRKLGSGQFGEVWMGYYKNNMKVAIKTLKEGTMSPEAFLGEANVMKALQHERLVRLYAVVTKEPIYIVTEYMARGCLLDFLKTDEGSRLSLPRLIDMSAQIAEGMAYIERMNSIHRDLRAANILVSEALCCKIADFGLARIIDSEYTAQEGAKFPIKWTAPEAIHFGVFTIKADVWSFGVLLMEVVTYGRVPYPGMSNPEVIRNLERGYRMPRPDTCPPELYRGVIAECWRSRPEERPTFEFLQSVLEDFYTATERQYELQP

[6] = species on record: Homo sapiens; assay: Selectivity index, ratio of IC50 for FYN (unknown origin) to IC50 for recombinant full length BTK (unknown origin) expressed in baculovirus infected Sf9 cells
[7] = molecular target: T1, Tyrosine-protein kinase TXK (Homo sapiens, UniProt P42681); assay: Inhibition of TXK (unknown origin)
T1 sequence (P42681 whole entry): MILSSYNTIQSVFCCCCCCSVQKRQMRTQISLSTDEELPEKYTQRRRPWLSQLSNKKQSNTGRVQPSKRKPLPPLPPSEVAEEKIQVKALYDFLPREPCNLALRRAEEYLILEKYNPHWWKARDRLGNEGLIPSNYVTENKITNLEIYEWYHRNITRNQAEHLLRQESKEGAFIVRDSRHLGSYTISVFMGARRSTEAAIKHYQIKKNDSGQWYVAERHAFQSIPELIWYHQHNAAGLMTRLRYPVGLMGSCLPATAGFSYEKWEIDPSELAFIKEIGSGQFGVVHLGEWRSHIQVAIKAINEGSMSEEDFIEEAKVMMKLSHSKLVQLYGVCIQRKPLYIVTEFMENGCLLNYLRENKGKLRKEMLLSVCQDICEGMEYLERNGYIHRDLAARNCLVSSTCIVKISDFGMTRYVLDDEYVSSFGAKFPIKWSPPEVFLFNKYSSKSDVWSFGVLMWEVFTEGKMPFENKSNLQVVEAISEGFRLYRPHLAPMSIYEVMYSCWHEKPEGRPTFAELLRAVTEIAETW

[8] = species on record: Homo sapiens; assay: Selectivity index, ratio of IC50 for PTK6 (unknown origin) to IC50 for recombinant full length BTK (unknown origin) expressed in baculovirus infected Sf9 cells
[9] = species on record: Homo sapiens; assay: Selectivity index, ratio of IC50 for BLK (unknown origin) to IC50 for recombinant full length BTK (unknown origin) expressed in baculovirus infected Sf9 cells
[10] = Oral bioavailability in Wistar Han rat at 5 mg/kg; format: ADME, organism-based; settings: in vivo; for bioavailability: Wistar Han
[11] = species on record: Homo sapiens; assay: Selectivity index, ratio of IC50 for TEC (unknown origin) to IC50 for recombinant full length BTK (unknown origin) expressed in baculovirus infected Sf9 cells
[12] = molecular target: Proto-oncogene tyrosine-protein kinase Src (Homo sapiens, UniProt P12931); assay: Inhibition of SRC (unknown origin)
Proto-oncogene tyrosine-protein kinase Src, sequence (P12931 2-536 limits assumed): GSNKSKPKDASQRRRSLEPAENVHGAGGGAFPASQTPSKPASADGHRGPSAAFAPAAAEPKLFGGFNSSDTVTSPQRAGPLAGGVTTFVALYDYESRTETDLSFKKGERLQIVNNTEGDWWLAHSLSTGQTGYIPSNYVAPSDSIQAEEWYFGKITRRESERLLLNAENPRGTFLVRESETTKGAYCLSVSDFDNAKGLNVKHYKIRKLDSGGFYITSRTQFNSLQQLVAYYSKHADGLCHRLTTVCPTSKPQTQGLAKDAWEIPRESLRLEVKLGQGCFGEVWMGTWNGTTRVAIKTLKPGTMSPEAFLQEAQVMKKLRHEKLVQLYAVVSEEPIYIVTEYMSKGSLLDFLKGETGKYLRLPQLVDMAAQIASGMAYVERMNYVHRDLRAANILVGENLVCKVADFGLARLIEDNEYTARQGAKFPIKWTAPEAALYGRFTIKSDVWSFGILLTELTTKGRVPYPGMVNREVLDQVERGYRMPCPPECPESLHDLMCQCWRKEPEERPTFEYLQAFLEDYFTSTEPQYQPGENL

[13] = Volume of distribution at steady state in Beagle dog at 1 mg/kg, iv; format: ADME, organism-based, Canis lupus familiaris; settings: in vivo, read-out: Vdss
[14] = Cmax in Beagle dog at 2 mg/kg, po; format: ADME, organism-based, Canis lupus familiaris; set-up: route oral, dose 2 mg/kg; settings: in vivo
[15] = Oral bioavailability in Beagle dog at 2 mg/kg; format: ADME, organism-based, Canis lupus familiaris; settings: in vivo
[16] = tested on: Rattus norvegicus; assay: Antiarthritic activity in Lewis rat model of collagen-induced arthritis assessed as decrease in paw thickness at 1 to 30 mg/kg, po qd and measured for 30 days; format: functional, organism-based; settings: dose mg/kg 1-30, time 30.0 day
[17] = AUC in Beagle dog at 1 mg/kg, iv; format: ADME, organism-based, Canis lupus familiaris; set-up: dose 1 mg/kg; settings: in vivo
[18] = Clearance in Beagle dog at 1 mg/kg, iv; format: ADME, organism-based, Canis lupus familiaris; settings: in vivo
[19] = Half life in Beagle dog at 1 mg/kg, iv; format: ADME, organism-based, Canis lupus familiaris; settings: in vivo
[20] = Tmax in Beagle dog at 2 mg/kg, po; format: ADME, organism-based, Canis lupus familiaris; settings: in vivo

| IC50 [5] [nM] | IC50 [7] [nM] | IC50 [12] [nM] | Compound | Ratio IC50 [1] | Ratio IC50 [2] | IC50 [3] [nM] | IC50 [4] [nM] | Ratio IC50 [6] | Ratio IC50 [8] | Ratio IC50 [9] | bioavailability [10] [%] | Ratio IC50 [11] | further results |
| --- | --- | --- | --- | --- | --- | --- | --- | --- | --- | --- | --- | --- | --- |
| 8.3 | 33 | 33 | Nc1nccn2c([C@@H]3CC[C@H]4CCC(=O)N4C3)nc(-c3ccc(C(=O)Nc4cc(C(F)(F)F)ccn4)cc3)c12 | 340 |  |  |  | 870 | 420 | 83 | 46 | 630 | Vd [13]: 1.5 L/kg; Cmax [14]: 1.7 µM; bioavailability [15]: 100%; Activity [16]: Dose-dependent effect; AUC [17]: 2800 nM·h; clearance [18]: 0.66 L/h/kg; half-life [19]: 3.6 h; Tmax [20]: 1 h |
| 17 | 15 | 69 | CC1(C)OC(=O)N2C[C@H](c3nc(-c4ccc(C(=O)Nc5cc(C(F)(F)F)ccn5)cc4)c4c(N)nccn34)CC[C@H]21 | 300 | 283 | 34 | 0.12 | 1700 | 200 | 140 |  | 220 | F ([10]; 5 mg/kg): 160% |

| Compound | IC50 [5] [nM] | IC50 [7] [nM] | IC50 [12] [nM] | Ratio IC50 [1] | Ratio IC50 [2] | IC50 [3] [nM] | IC50 [4] [nM] | Ratio IC50 [6] | Ratio IC50 [8] | Ratio IC50 [9] | bioavailability [10] [%] | Ratio IC50 [11] | further results |
| --- | --- | --- | --- | --- | --- | --- | --- | --- | --- | --- | --- | --- | --- |
| Nc1nccn2c([C@@H]3CC[C@H]4COC(=O)N4C3)nc(-c3ccc(C(=O)Nc4cc(C(F)(F)F)ccn4)cc3)c12 | 22 | 46 | 92 | 554 | 313 | 26 | 0.083 | 219 | 600 | 265 | 3.6 | 1110 |  |
